Measurements taken from patent US11414413B2, “Heterocyclic compound as JAK inhibitor, and salts and therapeutic use thereof” (Suzhou Longbiotech Pharmaceuticals Co., Ltd., priority 2016, dated 2022).

How the values were obtained:
Type in all cases: biochemical
[1] = target: JAK2 (Homo sapiens (Human), UniProt O60674); assay: Inhibition of JAK2, luminescence kinase assay (ADP-Glo); conditions: purified recombinant JAK2
Method: (§1) The study of the effect of compounds on the activity of purified recombinant JAK was performed by studying the inhibitory activity of the compounds on JAK from the enzymatic level. The experimental principle is to use a luminescence kinase assay to detect the ADP content produced by the reaction of JAK with the substrate Poly (4:1 Glu, Tyr) peptide: after ADP is converted to ATP, ATP can act as a substrate for the Ultra-Glo luciferase catalytic reaction, producing an optical signal. The luminescence signal is positively correlated with the amount of ADP and kinase activity. Therefore, the inhibitory effect of the compounds on the recombinant JAK was determined by observing the luminescence signal produced by the reaction of JAK and the substrate, and was expressed by IC50.
(§2) Experimental method: 10 different concentrations of compounds were incubated with JAK1, JAK2 and JAK3, respectively, for 60 minutes at 37° C. The substrate and ATP were then added, mixed, and reacted at 37° C. for 50 minutes. 25 μl of ADP-Glo™ was added and mixed for 2 minutes. The reaction was carried out for 50 minutes at room temperature. Further, 50 μl of the detection reagent was added and mixed for 2 minutes, and incubated at room temperature for 50 minutes, and detected by a chemiluminometer.

[2] = target: JAK3 (Homo sapiens (Human), UniProt P52333); assay: Inhibition of JAK3, luminescence kinase assay (ADP-Glo); conditions: purified recombinant JAK3
Sequence of JAK3 (P52333 whole entry): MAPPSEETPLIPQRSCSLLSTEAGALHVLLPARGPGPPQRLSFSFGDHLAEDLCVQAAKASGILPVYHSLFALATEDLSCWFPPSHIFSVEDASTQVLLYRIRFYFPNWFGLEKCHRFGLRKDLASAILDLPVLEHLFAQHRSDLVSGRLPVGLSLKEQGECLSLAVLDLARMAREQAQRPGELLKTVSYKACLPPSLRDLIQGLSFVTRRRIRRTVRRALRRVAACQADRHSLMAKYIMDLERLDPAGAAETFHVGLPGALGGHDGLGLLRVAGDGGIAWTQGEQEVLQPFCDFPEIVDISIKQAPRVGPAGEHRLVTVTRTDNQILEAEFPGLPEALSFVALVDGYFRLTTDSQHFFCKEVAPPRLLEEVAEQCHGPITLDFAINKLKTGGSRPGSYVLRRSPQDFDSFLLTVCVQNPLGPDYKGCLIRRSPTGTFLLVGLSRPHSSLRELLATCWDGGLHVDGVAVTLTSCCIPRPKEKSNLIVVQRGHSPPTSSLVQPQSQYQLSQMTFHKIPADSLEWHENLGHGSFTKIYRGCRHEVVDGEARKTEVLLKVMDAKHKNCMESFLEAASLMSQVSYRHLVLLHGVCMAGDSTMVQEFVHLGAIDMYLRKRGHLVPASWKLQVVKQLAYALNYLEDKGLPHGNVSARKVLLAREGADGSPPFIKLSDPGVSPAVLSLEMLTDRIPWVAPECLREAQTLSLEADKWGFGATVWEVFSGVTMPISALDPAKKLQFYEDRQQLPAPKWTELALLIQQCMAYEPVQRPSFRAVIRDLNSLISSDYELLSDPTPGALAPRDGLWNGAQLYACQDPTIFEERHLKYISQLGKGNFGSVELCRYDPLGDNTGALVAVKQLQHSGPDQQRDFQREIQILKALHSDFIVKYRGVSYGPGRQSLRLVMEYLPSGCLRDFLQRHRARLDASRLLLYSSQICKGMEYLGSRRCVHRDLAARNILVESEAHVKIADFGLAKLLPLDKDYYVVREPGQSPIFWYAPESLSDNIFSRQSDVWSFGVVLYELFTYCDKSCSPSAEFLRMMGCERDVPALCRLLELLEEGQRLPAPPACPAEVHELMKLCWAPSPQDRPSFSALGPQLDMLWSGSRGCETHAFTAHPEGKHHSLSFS
Method: as §1, §2

[3] = target: JAK1 (Homo sapiens (Human), UniProt P23458); assay: Inhibition of JAK1, luminescence kinase assay (ADP-Glo); conditions: purified recombinant JAK1
Sequence of JAK1 (P23458 whole entry): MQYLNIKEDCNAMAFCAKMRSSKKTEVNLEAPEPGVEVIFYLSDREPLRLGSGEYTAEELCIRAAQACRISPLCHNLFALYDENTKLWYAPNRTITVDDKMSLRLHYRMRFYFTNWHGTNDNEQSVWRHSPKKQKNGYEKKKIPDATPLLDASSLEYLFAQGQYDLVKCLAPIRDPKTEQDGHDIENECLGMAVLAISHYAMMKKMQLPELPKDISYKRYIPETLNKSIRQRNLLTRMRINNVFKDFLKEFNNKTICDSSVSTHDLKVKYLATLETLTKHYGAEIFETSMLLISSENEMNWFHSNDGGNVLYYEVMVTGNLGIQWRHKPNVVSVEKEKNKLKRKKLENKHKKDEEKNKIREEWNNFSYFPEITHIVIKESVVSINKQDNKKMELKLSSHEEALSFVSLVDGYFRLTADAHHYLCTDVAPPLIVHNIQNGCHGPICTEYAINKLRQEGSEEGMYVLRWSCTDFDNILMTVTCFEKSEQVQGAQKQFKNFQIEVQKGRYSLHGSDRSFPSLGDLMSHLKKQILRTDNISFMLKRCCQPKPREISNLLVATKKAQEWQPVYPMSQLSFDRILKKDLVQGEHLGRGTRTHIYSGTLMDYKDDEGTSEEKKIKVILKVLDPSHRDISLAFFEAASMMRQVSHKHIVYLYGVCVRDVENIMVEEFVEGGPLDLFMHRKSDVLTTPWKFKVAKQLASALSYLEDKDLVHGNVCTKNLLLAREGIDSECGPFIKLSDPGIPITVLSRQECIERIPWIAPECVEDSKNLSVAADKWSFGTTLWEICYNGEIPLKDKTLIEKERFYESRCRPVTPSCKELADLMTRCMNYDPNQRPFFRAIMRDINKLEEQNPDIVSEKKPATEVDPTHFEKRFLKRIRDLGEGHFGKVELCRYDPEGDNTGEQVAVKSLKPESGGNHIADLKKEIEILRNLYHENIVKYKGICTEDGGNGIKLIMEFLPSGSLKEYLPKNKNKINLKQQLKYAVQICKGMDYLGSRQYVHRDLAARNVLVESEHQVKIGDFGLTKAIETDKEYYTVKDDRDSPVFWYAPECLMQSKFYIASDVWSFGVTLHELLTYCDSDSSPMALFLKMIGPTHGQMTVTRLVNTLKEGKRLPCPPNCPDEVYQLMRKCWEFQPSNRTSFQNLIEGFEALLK
Method: as §1, §2

Sequence of JAK2 (O60674 whole entry): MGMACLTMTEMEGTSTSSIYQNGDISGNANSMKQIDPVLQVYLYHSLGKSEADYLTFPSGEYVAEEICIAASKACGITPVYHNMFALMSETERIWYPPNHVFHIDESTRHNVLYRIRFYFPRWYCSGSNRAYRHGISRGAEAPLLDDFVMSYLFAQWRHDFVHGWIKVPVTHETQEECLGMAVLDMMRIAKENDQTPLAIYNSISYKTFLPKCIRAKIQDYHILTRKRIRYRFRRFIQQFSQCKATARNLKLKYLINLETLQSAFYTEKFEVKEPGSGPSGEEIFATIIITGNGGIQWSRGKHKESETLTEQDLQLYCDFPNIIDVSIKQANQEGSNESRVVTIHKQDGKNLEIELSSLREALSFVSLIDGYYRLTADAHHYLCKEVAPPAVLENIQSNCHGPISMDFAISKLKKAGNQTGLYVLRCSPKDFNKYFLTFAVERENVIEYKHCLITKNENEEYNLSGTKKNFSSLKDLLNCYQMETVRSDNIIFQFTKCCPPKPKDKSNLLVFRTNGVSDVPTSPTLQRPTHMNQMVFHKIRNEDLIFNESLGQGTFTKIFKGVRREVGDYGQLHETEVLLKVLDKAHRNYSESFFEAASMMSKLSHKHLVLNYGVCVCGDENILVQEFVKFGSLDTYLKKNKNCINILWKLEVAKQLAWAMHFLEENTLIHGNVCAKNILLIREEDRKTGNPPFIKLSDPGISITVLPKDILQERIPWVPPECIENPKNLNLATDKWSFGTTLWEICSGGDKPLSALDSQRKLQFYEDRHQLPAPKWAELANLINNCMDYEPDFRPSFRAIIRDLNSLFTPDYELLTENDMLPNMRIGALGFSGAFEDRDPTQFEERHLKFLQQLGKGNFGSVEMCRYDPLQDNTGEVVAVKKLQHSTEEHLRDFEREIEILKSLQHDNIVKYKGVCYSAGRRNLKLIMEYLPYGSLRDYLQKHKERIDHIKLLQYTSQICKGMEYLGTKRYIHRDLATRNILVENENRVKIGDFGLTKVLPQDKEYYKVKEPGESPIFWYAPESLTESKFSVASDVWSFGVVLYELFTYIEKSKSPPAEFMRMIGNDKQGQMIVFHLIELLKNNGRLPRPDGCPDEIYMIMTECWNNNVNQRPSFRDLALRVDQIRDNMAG

Row | Structure (SMILES) | IC50 [1] | IC50 [2] | IC50 [3]
1 | CCS(=O)(=O)N1CC(CC(N)=O)(n2cc(-c3ccnc4[nH]ccc34)cn2)C1 [Example 11, 2-(3-(4-(1H-pyrrolo[2,3-b]pyridin-4-yl)-1H-pyrazol-1-yl)-1-(ethylsulfonyl)azetidin-3-yl)acetamide] | > 50 nM | > 50 nM | > 50 nM
2 | O=C(NCC(F)(F)F)C1(Nc2nc(-c3c[nH]c4ncccc34)ncc2F)CCN(S(=O)(=O)C2CC2)CC1 [Example 42, 4-((5-fluoro-2-(1H-pyrrolo[2,3-b]pyridin-3-yl)pyrimidin-4-yl)amino)-1-(cyclopropylsulfonyl)-N-(2,2,2-trifluoroethyl)piperidin-4-carboxamide] | 20 to 50 nM | 20 to 50 nM | > 50 nM
3 | O=C(CC1(n2cc(-c3c[nH]c4ncccc34)cn2)CCCC1)NCC(F)(F)F [Example 25, 2-(1-(4-(1H-pyrrolo[2,3-b]pyridin-3-yl)-1H-pyrazol-1-yl)cyclopentyl)-N-(2,2,2-trifluoroethyl) acetamide] |  | 20 to 50 nM | 20 to 50 nM
4 | CCS(=O)(=O)N1CC(CC(=O)NCC(F)(F)F)(n2cc(-c3ncnc4[nH]ccc34)cn2)C1 [Example 8, 2-(3-(4-(1H-pyrrolo[2,3-d]pyrimidin-4-yl)-1H-pyrazol-1-yl)-1-(ethylsulfonyl)azetidin-3-yl)-N-(2,2,2-trifluoroethyl)acetamide] | > 50 nM | > 50 nM | > 50 nM
5 | CS(=O)(=O)N1CC(CC(N)=O)(n2cc(-c3ncnc4[nH]ccc34)cn2)C1 [Example 14, 2-(3-(4-(7H-pyrrolo[2,3-d]pyrimidin-4-yl)-1H-pyrazol-1-yl)-1-(methylsulfonyl)azetidin-3-yl) acetamide] | 20 to 50 nM | > 50 nM | 20 to 50 nM
6 | CCS(=O)(=O)N1CC(CC#N)(n2cc(-c3c[nH]c4ncccc34)cn2)C1 [Example 1, 2-(3-(4-(1H-pyrrolo[2,3-b]pyridin-3-yl)-1H-pyrazol-1-yl)-1-(ethylsulfonyl)azetidin-3-yl)acetonitrile] | 20 to 50 nM |  | 
7 | CS(=O)(=O)N1CCC(CC(=O)NCC(F)(F)F)(n2cc(-c3c[nH]c4ncccc34)cn2)CC1 [Example 22, 2-(4-(4-(7H-pyrrolo[2,3-b]pyridin-3-yl)-1H-pyrazol-1-yl)-1-(methylsulfonyl)piperidin-4-yl)-N-(2,2,2-trifluoroethyl)acetamide] | > 50 nM | > 50 nM | > 50 nM
8 | NC(=O)CC1(n2cc(-c3c[nH]c4ncccc34)cn2)CCS(=O)(=O)CC1 [Example 18, 2-(4-(4-(1H-pyrrolo[2,3-b]pyridin-3-yl)-1H-pyrazol-1-yl)-1,1-dioxotetrahydro-2H-thiopyran-4-yl)acetamide] | > 50 nM | < 20 nM | < 20 nM
9 | O=C(CC1(n2cc(-c3ncnc4[nH]ccc34)cn2)CCCC1)NCC(F)(F)F [Example 26, 2-(1-(4-(1H-pyrrolo[2,3-b]pyrimidin-4-yl)-1H-pyrazol-1-yl)cyclopentyl)-N-(2,2,2-trifluoroethyl)acetamide] |  |  | 20 to 50 nM
10 | CS(=O)(=O)N1CC(Nc2nc(-c3c[nH]c4ncccc34)ncc2F)(C(=O)NCC(F)(F)F)C1 [Example 34] | > 50 nM |  | > 50 nM
11 | CS(=O)(=O)N1CCC(CC#N)(n2cc(-c3c[nH]c4ncccc34)cn2)CC1 [Example 5] |  | < 20 nM | < 20 nM

Second part, the molecule after the results:

Row | IC50 [1] | IC50 [2] | IC50 [3] | Structure (SMILES)
12 | > 50 nM | 20 to 50 nM | > 50 nM | CS(=O)(=O)N1CCC(Nc2ccnc(-c3c[nH]c4ncccc34)n2)(C(=O)NCC(F)(F)F)CC1 [Example 37, 4-((2-(1H-pyrrolo[2,3-b]pyridin-3-yl)pyrimidin-4-yl)amino)-1-(methylsulfonyl)-N-(2,2,2-trifluoroethyl)piperidin-4-carboxamide]
13 | > 50 nM | 20 to 50 nM | > 50 nM | N#CC1(Nc2ccnc(-c3ccnc4[nH]ccc34)n2)CCCC1 [Example 59, 1-((2-(1H-pyrrolo[2,3-b]pyridin-4-yl)pyrimidin-4-yl)amino)cyclopentanecarbonitrile]
14 | > 50 nM | 20 to 50 nM | > 50 nM | CS(=O)(=O)N1CC(C#N)(Nc2ccnc(-c3ncnc4[nH]ccc34)n2)C1 [Example 49, 3-((2-(7H-pyrrolo[2,3-d]pyrimidin-4-yl)pyrimidin-4-yl)amino)-1-(methylsulfonyl) azetidine-3-carbonitrile]
15 | 20 to 50 nM |  | > 50 nM | O=C(NCC(F)(F)F)C1(Nc2nc(-c3c[nH]c4ncccc34)ncc2F)CCS(=O)(=O)CC1 [Example 44, 4-((5-fluoro-2-(1H-pyrrolo[2,3-b]pyridin-3-yl)pyrimidin-4-yl)amino)-N-(2,2,2-trifluoroethyl)tetrahydro-2H-thiopyran-4-carboxamide 1,1-dioxide]
16 |  | 20 to 50 nM |  | CCS(=O)(=O)N1CC(C#N)(Nc2ccnc(-c3ccnc4[nH]ccc34)n2)C1 [Example 47, 3-((2-(1H-pyrrolo[2,3-b]pyridin-4-yl)pyrimidin-4-yl)amino)-1-(ethylsulfonyl)azetidine-3-carbonitrile]
17 | > 50 nM | > 50 nM | > 50 nM | N#CC1(Nc2ccnc(-c3ncnc4[nH]ccc34)n2)CCS(=O)(=O)CC1 [Example 52, 4-((2-(7H-pyrrolo[2,3-d]pyrimidin-4-yl)pyrimidin-4-yl)amino)tetrahydro-2H-thiopyran-4-carbonitrile 1,1-dioxide]
18 | > 50 nM | > 50 nM | > 50 nM | CC[C@](C)(C#N)Nc1ccnc(-c2ccnc3[nH]ccc23)n1 [Example 62]
19 | > 50 nM | 20 to 50 nM | > 50 nM | O=C(NCC(F)(F)F)C1(Nc2ccnc(-c3c[nH]c4ncccc34)n2)CN(S(=O)(=O)C2CC2)C1 [Example 33, 3-((2-(1H-pyrrolo[2,3-b]pyridin-3-yl)pyrimidin-4-yl)amino)-1-(cyclopropylsulfonyl)-N-(2,2,2-trifluoroethyl)azetidin-3-carboxamide]
20 | > 50 nM | 20 to 50 nM | > 50 nM | O=C(NCC(F)(F)F)C1(Nc2ccnc(-c3c[nH]c4ncccc34)n2)CCN(S(=O)(=O)C2CC2)CC1 [Example 39, 4-((2-(1H-pyrrolo[2,3-b]pyridin-3-yl)pyrimidin-4-yl)amino)-1-(cyclopropylsulfonyl)-N-(2,2,2-trifluoroethyl)piperidin-4-carboxamide]
21 | > 50 nM |  | > 50 nM | CCS(=O)(=O)N1CC(Nc2ccnc(-c3c[nH]c4ncccc34)n2)(C(=O)NCC(F)(F)F)C1 [Example 32, 3-((2-(1H-pyrrolo[2,3-b]pyridin-3-yl)pyrimidin-4-yl)amino)-1-(ethylsulfonyl)-N-(2,2,2-trifluoroethyl)azetidin-3-carboxamide]
22 |  | 20 to 50 nM |  | CCS(=O)(=O)N1CCC(Nc2ccnc(-c3c[nH]c4ncccc34)n2)(C(=O)NCC(F)(F)F)CC1 [Example 38, 4-((2-(1H-pyrrolo[2,3-b]pyridin-3-yl)pyrimidin-4-yl)amino)-1-(ethylsulfonyl)-N-(2,2,2-trifluoroethyl)piperidin-4-carboxamide]
23 | > 50 nM |  | > 50 nM | CS(=O)(=O)N1CC(Nc2ccnc(-c3c[nH]c4ncccc34)n2)(C(=O)NCC(F)(F)F)C1 [Example 31, 3-((2-(1H-pyrrolo[2,3-b]pyridin-3-yl)pyrimidin-4-yl)amino)-1-(methylsulfonyl)-N-(2,2,2-trifluoroethyl)azetidin-3-carboxamide]
